# Read-outs that look alike come from different tables or passages of the source.
# What was measured:
# [1] = tested on: TX001-H5N1 wild-type; format: cell-based, A/dairy cattle/Texas/24–008749-001/2024 (H5N1)
# [2] = tested on: VN1203-H5N1; test: microbe, parasite or virus in culture; format: cell-based, A/Vietnam/1203/2004 (H5N1); conditions: read-out: IC50 of polymerase inhibitor
# [3] = tested on: wild-type TX001-H5N1; conditions: mouse
# [4] = molecular target: VN1203-H5N1 neuraminidase (NA) (Influenza A virus, UniProt Q6DPL2); test: biochemical; parameters: species or system A/Vietnam/1203/2004 (H5N1)
# [5] = molecular target: TX001-H5N1 wild-type neuraminidase (NA) (Influenza A virus, UniProt D0G890); format: biochemical, A/dairy cattle/Texas/24–008749-001/2024 (H5N1)
# [6] = read-out: IC50 of neuraminidase inhibitors
compound,measurement,setting,value
O=C1c2c(O)c(=O)ccn2N([C@@H]2c3ccccc3SCc3c2ccc(F)c3F)[C@@H]2COCCN12 [Baloxavir acid],IC50,[1]; read-out: IC50 of polymerase inhibitor,0.61 ± 0.12 nM
same,IC50,[2],1.25 ± 0.75 nM
NC(=O)c1nc(F)c[nH]c1=O [Favipiravir],Effectiveness of polymerase inhibitor in vitro,[1],highly effective
same,IC50,"[2]; Influenza A virus, H5N1, MDCK, 48 h",1.65 ± 0.15 µg/mL
same,"Effectiveness in vivo (body weight, survival, virus titres)",[3]; po,highly effective
CO[C@@H]([C@@H]1OC(C(=O)O)=C[C@H](NC(=N)N)[C@H]1NC(C)=O)[C@H](O)CO [Laninamivir],IC50,[4],0.41 ± 0.03 nM
CCC(CC)[C@H](NC(C)=O)[C@@H]1[C@H](O)[C@@H](C(=O)O)C[C@H]1N=C(N)N [Peramivir],IC50,[5]; [6],0.195 ± 0.015 nM
same,IC50,[4]; [6],0.24 ± 0.03 nM
CC(=O)N[C@H]1[C@H]([C@H](O)[C@H](O)CO)OC(C(=O)O)=C[C@@H]1N=C(N)N [Zanamivir],Antiviral sensitivity to NA inhibitor in vitro (interpretation),[5],sensitive
same,Effect on body weight loss and death,[3]; in vivo,delayed body weight loss and death
same,"Effect on virus titres in lung, nasal turbinate and brain",[3]; in vivo,"significantly reduced virus titres in lung, nasal turbinate and brain"
same,Protection against lethality,[3]; in vivo,did not protect against lethality
COC(=O)OCOc1c2n(ccc1=O)N([C@@H]1c3ccccc3SCc3c1ccc(F)c3F)[C@@H]1COCCN1C2=O [baloxavir marboxil],Effectiveness of polymerase inhibitor in vitro,[1],highly effective
same,"Effectiveness in vivo (body weight, survival, virus titres)",[3]; po,highly effective
CCOC(=O)C1=C[C@@H](OC(CC)CC)[C@H](NC(C)=O)[C@@H](N)C1 [oseltamivir phosphate],"Protection against body weight loss, viral replication in tissues, or survival","[3]; in vivo, po",Minimal protection

# Source: PMC12629513 (Nature, 2024)
